According to PMC12821709, “Biomimetic Chromatography as a High-Throughput Tool for Screening Bioaccumulation and Acute Aquatic Toxicity of Pesticides” (Journal of Xenobiotics, 2025):
≈ marks a conversion by molar mass, not a printed value. Read-outs that look alike come from different tables or passages of the source.

Tests used:
[1] = format: physicochemical
Description: All biochromatographic experiments were performed using the gradient IAM protocols developed by Valkó and co-workers and previously implemented in this laboratory. Analyses were carried out on a Prominence-i LC-2030C 3D HPLC system (Shimadzu, Tokyo, Japan) controlled by LabSolutions software (v6.81, Kyoto, Japan) and equipped with an IAM.PC.DD2 column (10 × 4.6 mm, 10.0 µm) packed on the newer ‘Type B’ silica support and protected by a guard column (Regis Technologies, Morton Grove, IL, USA).
Mobile phase A consisted of 50 mM ammonium acetate (VWR International, Leuven, Belgium) in water, adjusted to physiological pH 7.4 with concentrated ammonia solution (Avantor Performance Materials Poland S.A., Gliwice, Poland). Ultrapure water with a resistivity of 18.2 MΩ was obtained from a Milli-Q water purification system (Merck Millipore, Darmstadt, Germany). For phospholipid affinity measurements, mobile phase B was HPLC-grade acetonitrile (Chempur, Piekary Śląskie, Poland). A linear gradient from 0 to 85% B was applied over 5.25 min, followed by an isocratic hold at 85% B for 0.5 min. The mobile phase flow rate was set at 1.5 mL/min, and the column temperature was maintained at 30 °C.
The reference substances used to calculate CHIIAM values were obtained as follows: acetanilide, butyrophenone and octanophenone from Alfa Aesar (Haverhill, MA, USA); acetophenone and paracetamol from Sigma-Aldrich (Steinheim, Germany); and heptanophenone, hexanophenone, propiophenone and valerophenone from Acros Organics (Pittsburgh, PA, USA).
Dimethyl sulfoxide (Avantor Performance Materials Poland S.A., Gliwice, Poland) was used to dissolve the analytes and to prepare stock solutions at a concentration of 200 µg/mL. UV detection was performed in the range 190–300 nm. The injection volume was 5 µL. Each compound was analyzed in duplicate, and the variation in retention times was lower than 2%. Raw retention times for the pesticides and reference standards are available in Zenodo platform https://doi.org/10.5281/zenodo.17672582.

Daphnia magna = conditions: cited from earlier work
[2] = test system: rainbow trout (Oncorhynchus mykiss); conditions: 96 h, ref Pesticide Properties DataBase (PPDB; University of Hertfordshire), cited from earlier work
fish = conditions: cited from earlier work
[3] = IAM.PC.DD2 column, gradient 0-85% acetonitrile, 50 mM ammonium acetate pH 7.4, 30 °C
[4] = 48 h, Daphnia magna, ref Pesticide Properties DataBase (PPDB; University of Hertfordshire)
[5] = in fish, dimensionless, ref Pesticide Properties DataBase (PPDB; University of Hertfordshire)

Structure (SMILES)	CHIIAM (IAM chromatographic hydrophobicity index) [1, 3]	EC50 Daphnia (Daphnia magna; [4]) [ng/mL]	LC50 Fish [2] [µg/mL]	BCF (bioconcentration factor) (fish; [5])	also measured
Cc1c(COC(=O)[C@@H]2[C@H](/C=C(\Cl)C(F)(F)F)C2(C)C)cccc1-c1ccccc1 (racemic) [Bifenthrin, bifenthrin]	54.4	0.11 (≈ 0.00026 µM)	0.00026 (≈ 0.000615 µM)	1703	CHIIAM (IAM chromatographic hydrophobicity index) ([1]; IAM.PC.DD2 column, gradient 0-85% acetonitrile, 50 mM ammonium acetate pH 7.4, 30 °C, listed as bifenthrin): > 48; LC50 Fish ([2]; listed as bifenthrin): ≈ 0.00026 mg/L
C/C(=N\C#N)N(C)Cc1ccc(Cl)nc1 [Acetamiprid, acetamiprid]	13.4	49800 (≈ 224 µM)	100 (≈ 449 µM)		
CCNc1nc(Cl)nc(NC(C)C)n1 [Atrazine, atrazine]	27.4	85000 (≈ 394 µM)	4.5 (≈ 20.9 µM)	4.3	EC50 Daphnia (Daphnia magna; 48 h, Daphnia magna, ref Pesticide Properties DataBase (PPDB; University of Hertfordshire), listed as atrazine): ≈ 85 mg/L
COP(=S)(OC)SCn1nnc2ccccc2c1=O [Azinphos-methyl, azinphos-methyl]		1.1 (≈ 0.00347 µM)		40	
CO/C=C(/C(=O)OC)c1ccccc1Oc1cc(Oc2ccccc2C#N)ncn1 [Azoxystrobin, azoxystrobin]	31.6	230 (≈ 0.57 µM)	0.47 (≈ 1.17 µM)		
O=C(Nc1ccccc1-c1ccc(Cl)cc1)c1cccnc1Cl [Boscalid, boscalid]	38.0	5330 (≈ 15.5 µM)	2.7 (≈ 7.87 µM)	107	BCF (bioconcentration factor) (fish; in fish, dimensionless, ref Pesticide Properties DataBase (PPDB; University of Hertfordshire), listed as boscalid): ≈ 107
CNC(=O)Oc1cccc2ccccc12 [Carbaryl, carbaryl]		6.4 (≈ 0.0318 µM)		44	EC50 Daphnia (Daphnia magna; 48 h, Daphnia magna, ref Pesticide Properties DataBase (PPDB; University of Hertfordshire), listed as carbaryl): ≈ 0.0064 mg/L
CCOP(=S)(OCC)Oc1nc(Cl)c(Cl)cc1Cl [Chlorpyrifos, chlorpyrifos]	48.1	0.1 (≈ 0.000285 µM)	0.025 (≈ 0.0713 µM)	1374	EC50 Daphnia (Daphnia magna; 48 h, Daphnia magna, ref Pesticide Properties DataBase (PPDB; University of Hertfordshire), listed as chlorpyrifos): 0.1 to 1 ng/mL
CCOP(=S)(OCC)Oc1cc(C)nc(C(C)C)n1 [Diazinon, diazinon]	39.3	1 (≈ 0.00329 µM)	3.1 (≈ 10.2 µM)	500	EC50 Daphnia (Daphnia magna; 48 h, Daphnia magna, ref Pesticide Properties DataBase (PPDB; University of Hertfordshire), listed as diazinon): 0.1 to 1 ng/mL
COc1c(Cl)ccc(Cl)c1C(=O)O [Dicamba, dicamba]			100 (≈ 452 µM)		CHIIAM (IAM chromatographic hydrophobicity index) ([1]; pH 7.4): 8.2; EC50 Daphnia (Daphnia magna; in vivo): 41000 ng/mL (≈ 185 µM); BCF (bioconcentration factor) (fish; in vivo): 15
COP(=S)(OC)Oc1ccc([N+](=O)[O-])c(C)c1 [Fenitrothion, fenitrothion]	38.1	8.6 (≈ 0.031 µM)	1.3 (≈ 4.69 µM)	29	
CC1(C)C(C(=O)OC(C#N)c2cccc(Oc3ccccc3)c2)C1(C)C (stereo not drawn) [Fenpropathrin, fenpropathrin]	48.6	0.53 (≈ 0.00152 µM)	0.0023 (≈ 0.00658 µM)	1100	LC50 Fish ([2]; listed as fenpropathrin): ≈ 0.0023 mg/L
N#Cc1c[nH]cc1-c1cccc2c1OC(F)(F)O2 [Fludioxonil, fludioxonil]	43.5	400 (≈ 1.61 µM)	0.23 (≈ 0.927 µM)	336	
CC(C)C1(C)N=C(c2ncccc2C(=O)O)NC1=O (stereo not drawn) [Imazapyr, imazapyr]	−12.1	100000 (≈ 383 µM)	100 (≈ 383 µM)	2.54	EC50 Daphnia (Daphnia magna; 48 h, Daphnia magna, ref Pesticide Properties DataBase (PPDB; University of Hertfordshire), listed as imazapyr): ≈ 100 mg/L
O=[N+]([O-])NC1=NCCN1Cc1ccc(Cl)nc1 [Imidacloprid, imidacloprid]	14.2	85000 (≈ 332 µM)	83 (≈ 325 µM)	0.61	BCF (bioconcentration factor) (fish; in fish, dimensionless, ref Pesticide Properties DataBase (PPDB; University of Hertfordshire), listed as imidacloprid): ≈ 0.6
CC1(C)C(C=C(Cl)Cl)C1C(=O)OCc1cccc(Oc2ccccc2)c1 (stereo not drawn) [Permethrin, permethrin]	54.8	0.6 (≈ 0.00153 µM)	0.0125 (≈ 0.0319 µM)	300	
CCCC1COC(Cn2cncn2)(c2ccc(Cl)cc2Cl)O1 (stereo not drawn) [Propiconazole, propiconazole]	38.7	10200 (≈ 29.8 µM)	2.6 (≈ 7.6 µM)	116	
CC(C)(C)C(O)(CCc1ccc(Cl)cc1)Cn1cncn1 (stereo not drawn) [Tebuconazole, tebuconazole]	39.5	2790 (≈ 9.06 µM)	4.4 (≈ 14.3 µM)	78	
CCNc1nc(Cl)nc(NC(C)(C)C)n1 [Terbuthylazine, terbuthylazine]	34.3	21200 (≈ 92.3 µM)	2.2 (≈ 9.58 µM)	34	BCF (bioconcentration factor) (fish; in fish, dimensionless, ref Pesticide Properties DataBase (PPDB; University of Hertfordshire), listed as terbuthylazine): ≈ 34
